One assay has as its system BALB/c mice. In words: Stimulation of hematopoiesis in the spleen of normal mice (splenocyte colony assay). It is filed as in vivo. Particulars: twice daily for 5 days, subcutaneous injection or oral gavage. On the procedure: On the sixth day the animals were sacrificed and their spleens were excised using sterile procedures. The spleens were disrupted to produce single cell suspensions which were subsequently treated with a solution of Tris ammonium chloride (pH 7.2) to lyse erythrocytes. The resulting splenocyte populations were in a hemocytometer and resuspended at […] in Iscove's Modified Eagles medium (IMDM) supplemented with 2% heat inactivated fetal calf serum. 0.3 mL of each splenocyte solution was added to 3 mL of Methocult™GF M3434 (Stem Cell Technologies, Vancouver, BC, Canada), a methylcellulose medium containing recombinant cytokines used for colony assays of murine progenitor cells. The medium was vigorously mixed and then 1.1 mL of the mixture was placed in duplicate onto sterile 35 mm diameter culture dishes, resulting in 5×10^5 splenocytes/plate. The plated cells were incubated at 37° C. under humidified conditions in 95% air/5% CO2 for 7 days. CFU-E were enumerated as per the manufacturers specifications after 2 days, while BFU-E, CFU-GM and CFU-GEMM were enumerated after 7 days. For each mouse, the absolute CFU/spleen were calculated using the total splenocyte count determined in the hemocytometer. The data shown in FIG. 9 represents the mean±SD CFU/spleen from 3 mice in each dosing group.

Assay [1] concerns human CD34+ cells (primitive hematopoietic progenitor cells) on stromal cell layer. In words: Long-Term Culture (LTC) assay followed by semi-solid colony assay. It is filed as cell-based. The source says:
An assay to evaluate the effect of a compound or of growth factors on PHPCs was first described by Dexter (Dexter T. M. et al, J. Cell. Physiol. 91:335–344 (1977)), and combines the Long-Term Culture (LTC) with the semi-solid colony assay. LTC is initiated over a pre-formed stromal cell layer which provides the necessary hematopoietic growth factors. It has been used extensively for the in vitro examination of murine and human hematopoiesis and to evaluate the ability of test compounds to generate LTC-ICs.
For the LTC assays, CD34^+ cells were isolated by positive selection from human bone marrow cells, apheresed peripheral blood or umbilical cord blood using a MAC separation system. To establish a stromal feeder layer, human bone marrow cells were cultured in Myelocult long term culture medium for 2 weeks. […] Medium and PT-100 was exchanged every three days thereafter. At the end of the culture period the culture was assayed for progenitor cells by plating in semi-solid medium (methylcellulose) supplemented with growth factors (Stem Cell Factor, GM-CSF, IL-3 and Erythropoietin).
The total number of myeloid, erythroid, blast forming and multilineage clonogeneic progenitors (colonies CFU-GM, CFU-E, BFU-E and CFU-GEMM, respectively) were determined after 14 days in methylcellulose culture.

Assay [2] deals with human bone marrow CD34+ cells (committed progenitor cells). In words: 2 week semi-solid (methylcellulose) colony (CFU) assay. It is filed as cell-based. From the text: Hematopoiesis is sustained by a pool of hematopoietic stem cells (HSCs) that can self-renew and differentiate into hematopoietic progenitor cells (HPCs). HPCs are committed to specific lineages which can be identified based on their colony morphology when grown in semi-solid media in vitro, typically over a 2 week period. The colonies grown in the semi-solid colony assay are functionally defined as colony- or burst-forming units and include BFU-E and CFU-E (cells committed to the erythroid lineage), CFU-GM (cells committed to the granulocytic/monocytic lineage), BFU-MK and CFU-MK (cells committed to the megakaryocyte lineage) and CFU-GEMM (multipotent progenitors).

The test system of assay [3] is cyclophosphamide treated mice. Nature of the assay: Regeneration of neutrophils in cyclophosphamide-treated mice. Conditions: for neutrophil recovery versus saline treated mice: 5 days; for ANC after treatment was stopped: count on Day 13; for Day on which normal levels of absolute neutrophil counts (ANC) were reached: saline treated mice Day 7. It is filed as in vivo. On the procedure:
In these studies, mice were injected intraperitoneally with a sublethal dose of 220 mg/kg cyclophosphamide (Day 1). […] After 72 hours (Day 3) mice were divided into 3 groups. […] G-CSF was used at 0.04 ug/dose (4 μg/kg/day) which is the dose frequently used in published reports studying the G-CSF effects in mice and is also the equivalent dose used in cancer patients. All administrations were performed twice daily (b.i.d.) for 5 consecutive days or as indicated. Blood samples were taken from individual mice on Day 4–8, and in some experiments on Days 13 or 17. At each time pont four or five test animals were sampled. Total and differential white blood cell counts of Gimsa-stained blood smears were performed.

The test system of assay [4] is human bone marrow stromal cells. In words: Production of G-CSF by human bone marrow stromal cells. Particulars: 10^−5 M PT-100, culture media collected on day 1. In kind it is cell-based. On the procedure:
Mononuclear cells were purified from bone marrow and cultured long-term culture medium, (Stem Cell Technologies, Inc., Vancouver, B.C.) for 2 weeks, with a single feeding of fresh medium after 1 week. […] Culture media were collected on day 1. Supernatants were assayed for human G-CSF using a Quantikine high sensitivity immuno-assay kit (R+D Systems, Minneapolis, Minn.).

Assay [5] deals with human CD34+ cells (primitive hematopoietic progenitor cells) on stromal cell layer. Conditions: cited from earlier work.
Assay [6] relates to human bone marrow CD34+ cells (committed progenitor cells). Particulars: stated as previously shown; cited from earlier work.

For the molecule `CC(C)[C@H](N)C(=O)N1CCC[C@H]1B(O)O` [PT-100, valine-prolineboronic acid], the “hematopoiesis in spleen (CFU/spleen: CFU-E, BFU-E, CFU-GM, CFU-GEMM)” value in the assay on BALB/c mice is given as “stimulated hematopoiesis for all progenitor colony types tested”. The “number of 4 and 5 week LTC-ICs” value in assay [1] (CD34+ cells from apheresed peripheral blood or umbilical cord blood, 30 days on irradiated stromal cells) is recorded as “increased”. In addition, the “growth of very early progenitor cells in LTC assays” value in assay [1] (all three cell sources (bone marrow, apheresed peripheral blood, umbilical cord blood), LTC-ICs at 4, 5 and 6 weeks) is reported as “significantly increased”. In assay [1] (human bone marrow culture, 4 week LTC assay), the “number of clonogeneic progenitors able to form colonies in semi-solid medium” value is “increased, in a dose dependent manner”. Further, the “differentiation of committed progenitor cells (CFU-E, CFU-GM, CFU-GEMM, BFU-E colonies)” value in assay [2] (human bone marrow CD34+ cells, 4 h pre-incubation, 14 days in methylcellulose with sub-optimal growth factors) was “did not stimulate differentiation”. In addition, in assay [2] (human bone marrow, apheresed peripheral blood or umbilical cord blood cells), the “generation of CFUs in the 2 week semi-solid assay” value is reported as “did not stimulate the generation of CFUs”. The “neutrophil recovery over saline” value in assay [3] (0.1 μg/b.i.d. oral gavage, 5 consecutive days from Day 3) is “did not significantly enhance neutrophil recovery over saline”. Further, the “neutrophil recovery versus saline treated mice” value is listed as “did not show much effect” in assay [3] (1 μg/b.i.d. s.c.), “accelerated” in assay [3] (5 μg/b.i.d. s.c.), “accelerated” in assay [3] (10 μg/b.i.d. s.c.) and “accelerated” in assay [3] (20 μg/b.i.d. s.c.). In addition, the “ANC after treatment was stopped” value in assay [3] (2 μg/b.i.d. by gavage for 5 days) is “decreased to normal counts by Day 13”. Moreover, the “neutrophil regeneration during the treatment period, PT-100 versus G-CSF” value in assay [3] (2 μg/b.i.d. by gavage, 5 consecutive days from Day 3) is “stimulated neutrophil regeneration to a similar level”. Also, the “Day on which normal levels of absolute neutrophil counts (ANC) were reached” value in assay [3] (2 μg/b.i.d. oral gavage) and in assay [3] (5 μg/b.i.d. oral gavage) was 5 days throughout. Moreover, the “rate of neutrophil recovery with additional administration for 2 or 3 days” value in assay [3] (gavage b.i.d. for 2 or 3 days starting Day 3) is on record as “increased the rate of recovery even further”. Further, the “reconstitution of neutrophils after one day of administration” value in assay [3] (gavage b.i.d. for 1 day starting Day 3 (5, 2 or 1 μg/b.i.d.)) is recorded as “accelerated reconstitution of neutrophils over saline treated animals”. Also, in assay [3] (gavage b.i.d., total of 4 or 5 days), the “rate of neutrophil recovery or ANC with 4 or 5 days versus 3 day administration” value is reported as “does not significantly increase”. In assay [3] (oral gavage b.i.d.), the “effect of additional administration on Days 5, 6 and 7 on ANC” value is reported as “caused a further increase in ANC”. Also, in assay [3] (s.c., five day period from Day 3, both doses tested), the “neutrophil recovery, twice daily versus once per day administration” value is on record as “faster rate of neutrophil recovery to higher neutrophil levels”. In assay [4], the “production of G-CSF by cultured stromal cells” value is listed as “stimulates production of G-CSF”.

B1: G-CSF: granulocyte colony stimulating factor, currently used to accelerate neutrophil recovery in cancer patients undergoing chemotherapy (protein, UniProt P09919 31-207, looked up)
Granulocyte …: TPLGPASSLPQSFLLKCLEQVRKIQGDGAALQEKLVSECATYKLCHPEELVLLGHSLGIPWAPLSSCPSQALQLAGCLSQLHSGLFLYQGLLQALEGISPELGPTLDTLQLDVADFATTIWQQMEELGMAPALQPTQGAMPAFASAFQRRAGGVLVASHLQSFLEVSYRVLRHLAQP
For the molecule B1, the “effect on growth of early human hematopoietic progenitor cells” value in assay [5] is “not affected”. For the same molecule, the “ANC after treatment was stopped” value in assay [3] (0.04 μg/b.i.d. s.c. for 5 days) is listed as “decreased to normal counts by Day 13”. In addition, the “neutrophil regeneration during the treatment period, PT-100 versus G-CSF” value in assay [3] (0.04 μg/b.i.d. subcutaneous injections, 5 consecutive days from Day 3) is “stimulated neutrophil regeneration to a similar level”. Also, the “CFU formation in the 2 week semi-solid assay” value in assay [6] was “stimulate CFU formation”.

The record behind these values is patent publication US7067489B2, “Hematopoietic stimulation” (Point Therapeutics, Inc., priority 1998, dated 2006).
